Experimental data: the supplement of paper PMC6045584
± gives the standard deviation of the averaged measurements.

The test systems below were run with CC[C@@H](C(=O)[C@@H](C)[C@@H](O)[C@H](C)[C@@H]1O[C@@H]([C@@H](CC)C(=O)O)CC[C@@H]1C)[C@H]1O[C@]2(C=C[C@@H](O)[C@]3(CC[C@@](C)([C@H]4CC[C@](O)(CC)[C@H](C)O4)O3)O2)[C@H](C)C[C@@H]1C [SALINOMYCIN] (assay: surviving fraction relative to DMSO-only wells; higher = less growth inhibition). Conditions: 0.5 nM; exposure time: 5 days.
In short: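 At 250–500 cells per well in 384-well plates, log-phase tumour cell lines were seeded and, 24 hours on, exposed continuously for five days to inhibitors at 0.5, 1, 5, 10, 50, 100, 500 and 1000 nM. Viability readout was CellTiter-Glo luminescence, reported as surviving fraction normalised to the median of DMSO-only wells.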
In the case of SCC36 HEADNECK, the surviving fraction is reported as 0.984 ± 0.07. For OS25HAL BONE, the surviving fraction was 0.952 ± 0.016. With HCC1806 BREAST the surviving fraction was 0.957 ± 0.25. With HU09 BONE the surviving fraction was 1.06 ± 0.035. Test System SG43 HEADNECK has a surviving fraction of 0.921 ± 0.12. Test System U2OS BONE has a surviving fraction of 1.01 ± 0.022. HOSMNG BONE was tested, and the surviving fraction was 0.987 ± 0.1. Test System CASKI CERVIX has a surviving fraction of 0.93 ± 0.055. For SUM44 BREAST, the surviving fraction was 0.967 ± 0.033. MDAMB231 BREAST was tested, and the surviving fraction was 0.9877 ± 0.006. CAL51 BREAST was tested, and the surviving fraction was 0.937 ± 0.041. With MDAMB436 BREAST the surviving fraction was 0.858 ± 0.039. With HSSYII SYNOVIAL the surviving fraction was 0.892 ± 0.033. In the case of RDES SOFT TISSUE, the surviving fraction is reported as 1.12 ± 0.12. Work on MDAMB157 BREAST yielded a surviving fraction of 0.881 ± 0.017. With CHLA90 AUTONOMIC GANGLIA the surviving fraction was 0.992 ± 0.017. Work on CADOES1 SOFT TISSUE yielded a surviving fraction of 0.978 ± 0.096. SG31 HEADNECK gave a surviving fraction of 1.08 ± 0.15. In the case of SCC47 HEADNECK, the surviving fraction is reported as 0.842 ± 0.064. S68 BREAST showed a surviving fraction of 0.923 ± 0.097. SNU475 LIVER was tested, and the surviving fraction was 0.974 ± 0.027. With 22RV1 PROSTATE the surviving fraction was 1.01 ± 0.075. Test System SG32 HEADNECK has a surviving fraction of 0.944 ± 0.068. Test System SCC003 HEADNECK has a surviving fraction of 0.904 ± 0.056. For “JURKAT HAEMATOPOIETIC AND LYMPHOID TISSUE”, the surviving fraction was 1.08 ± 0.011. Work on HT1080 SOFT TISSUE yielded a surviving fraction of 1.03 ± 0.034. CAL120 BREAST was tested, and the surviving fraction was 0.8885 ± 0.0083. MCF7 BREAST showed a surviving fraction of 0.853 ± 0.048. MFM223 BREAST was tested, and the surviving fraction was 1.08 ± 0.091. LNCAP PROSTATE was tested, and the surviving fraction was 0.833 ± 0.096. PCI30 HEADNECK gave a surviving fraction of 0.829 ± 0.026. Test System OSHN BONE has a surviving fraction of 1.02 ± 0.019. With SG28 HEADNECK the surviving fraction was 1.05 ± 0.098. HOS BONE gave a surviving fraction of 0.99 ± 0.0076. For HUO3N1 BONE, the surviving fraction was 1.01 ± 0.052. BT20 BREAST gave a surviving fraction of 0.964 ± 0.16. SJSA1 BONE was tested, and the surviving fraction was 1 ± 0.033. Test System JIMT1 BREAST has a surviving fraction of 0.96 ± 0.014. HCC78 LUNG was tested, and the surviving fraction was 0.833 ± 0.18. With NY BONE the surviving fraction was 0.929 ± 0.024.

Same assay, conditions: 1 nM; exposure time: 5 days
With SCC36 HEADNECK the surviving fraction was 0.972 ± 0.12. OS25HAL BONE showed a surviving fraction of 0.943 ± 0.012. Work on HCC1806 BREAST yielded a surviving fraction of 0.695 ± 0.59. HU09 BONE gave a surviving fraction of 1.01 ± 0.019. Test System SG43 HEADNECK has a surviving fraction of 1.2 ± 0.14. U2OS BONE showed a surviving fraction of 1.02 ± 0.04. With HOSMNG BONE the surviving fraction was 0.945 ± 0.13. For CASKI CERVIX, the surviving fraction was 0.921 ± 0.039. In the case of SUM44 BREAST, the surviving fraction is reported as 0.959 ± 0.021. With MDAMB231 BREAST the surviving fraction was 0.9962 ± 0.0061. With CAL51 BREAST the surviving fraction was 0.86 ± 0.12. In the case of MDAMB436 BREAST, the surviving fraction is reported as 0.902 ± 0.047. Test System HSSYII SYNOVIAL has a surviving fraction of 0.842 ± 0.027. Work on RDES SOFT TISSUE yielded a surviving fraction of 1.21 ± 0.03. MDAMB157 BREAST was tested, and the surviving fraction was 0.904 ± 0.042. Test System CHLA90 AUTONOMIC GANGLIA has a surviving fraction of 0.9167 ± 0.0091. CADOES1 SOFT TISSUE showed a surviving fraction of 0.959 ± 0.036. For SG31 HEADNECK, the surviving fraction was 1.12 ± 0.036. Test System SCC47 HEADNECK has a surviving fraction of 0.792 ± 0.026. For S68 BREAST, the surviving fraction was 0.998 ± 0.14. For SNU475 LIVER, the surviving fraction was 0.86 ± 0.032. For 22RV1 PROSTATE, the surviving fraction was 0.987 ± 0.053. With SG32 HEADNECK the surviving fraction was 1.13 ± 0.41. For SCC003 HEADNECK, the surviving fraction was 0.863 ± 0.098. “JURKAT HAEMATOPOIETIC AND LYMPHOID TISSUE” showed a surviving fraction of 1.09 ± 0.028. HT1080 SOFT TISSUE was tested, and the surviving fraction was 1.02 ± 0.015. CAL120 BREAST gave a surviving fraction of 0.893 ± 0.0056. For MCF7 BREAST, the surviving fraction was 0.8602 ± 0.005. With MFM223 BREAST the surviving fraction was 1.05 ± 0.024. For LNCAP PROSTATE, the surviving fraction was 0.884 ± 0.07. For PCI30 HEADNECK, the surviving fraction was 0.895 ± 0.025. Work on OSHN BONE yielded a surviving fraction of 1.01 ± 0.011. SG28 HEADNECK gave a surviving fraction of 1.08 ± 0.06. In the case of HOS BONE, the surviving fraction is reported as 0.969 ± 0.0052. HUO3N1 BONE gave a surviving fraction of 0.984 ± 0.073. In the case of BT20 BREAST, the surviving fraction is reported as 1.05 ± 0.14. Test System SJSA1 BONE has a surviving fraction of 0.992 ± 0.011. Work on JIMT1 BREAST yielded a surviving fraction of 0.977 ± 0.021. HCC78 LUNG gave a surviving fraction of 0.693 ± 0.063. Work on NY BONE yielded a surviving fraction of 0.9297 ± 0.0087.

Same assay, conditions: 5 nM; exposure time: 5 days
Test System SCC36 HEADNECK has a surviving fraction of 1.094 ± 0.0015. Work on OS25HAL BONE yielded a surviving fraction of 0.964 ± 0.02. Test System HCC1806 BREAST has a surviving fraction of 0.819 ± 0.58. HU09 BONE was tested, and the surviving fraction was 1.12 ± 0.14. SG43 HEADNECK was tested, and the surviving fraction was 0.776 ± 0.14. With U2OS BONE the surviving fraction was 1.01 ± 0.016. HOSMNG BONE showed a surviving fraction of 1.03 ± 0.086. For CASKI CERVIX, the surviving fraction was 0.868 ± 0.037. For SUM44 BREAST, the surviving fraction was 0.995 ± 0.042. MDAMB231 BREAST was tested, and the surviving fraction was 0.993 ± 0.011. CAL51 BREAST showed a surviving fraction of 0.984 ± 0.018. Test System MDAMB436 BREAST has a surviving fraction of 0.668 ± 0.033. For HSSYII SYNOVIAL, the surviving fraction was 0.864 ± 0.043. Test System RDES SOFT TISSUE has a surviving fraction of 1.17 ± 0.2. Test System MDAMB157 BREAST has a surviving fraction of 0.985 ± 0.073. Test System CHLA90 AUTONOMIC GANGLIA has a surviving fraction of 0.926 ± 0.014. CADOES1 SOFT TISSUE showed a surviving fraction of 0.838 ± 0.14. SG31 HEADNECK showed a surviving fraction of 1.07 ± 0.089. In the case of SCC47 HEADNECK, the surviving fraction is reported as 0.977 ± 0.074. For S68 BREAST, the surviving fraction was 1.37 ± 0.22. With SNU475 LIVER the surviving fraction was 0.952 ± 0.029. With 22RV1 PROSTATE the surviving fraction was 1 ± 0.06. For SG32 HEADNECK, the surviving fraction was 0.951 ± 0.13. SCC003 HEADNECK gave a surviving fraction of 0.946 ± 0.042. “JURKAT HAEMATOPOIETIC AND LYMPHOID TISSUE” showed a surviving fraction of 1.03 ± 0.02. HT1080 SOFT TISSUE was tested, and the surviving fraction was 1.03 ± 0.024. For CAL120 BREAST, the surviving fraction was 0.877 ± 0.021. MCF7 BREAST gave a surviving fraction of 0.821 ± 0.025. MFM223 BREAST showed a surviving fraction of 1.03 ± 0.03. Work on LNCAP PROSTATE yielded a surviving fraction of 0.818 ± 0.18. In the case of PCI30 HEADNECK, the surviving fraction is reported as 1.01 ± 0.07. With OSHN BONE the surviving fraction was 1.01 ± 0.016. SG28 HEADNECK gave a surviving fraction of 1.07 ± 0.16. HOS BONE was tested, and the surviving fraction was 0.997 ± 0.023. HUO3N1 BONE gave a surviving fraction of 1.01 ± 0.04. BT20 BREAST gave a surviving fraction of 1.12 ± 0.076. SJSA1 BONE gave a surviving fraction of 1.02 ± 0.041. With JIMT1 BREAST the surviving fraction was 0.979 ± 0.021. In the case of HCC78 LUNG, the surviving fraction is reported as 0.855 ± 0.17. NY BONE showed a surviving fraction of 0.965 ± 0.018.

Same assay, conditions: 10 nM; exposure time: 5 days
In the case of SCC36 HEADNECK, the surviving fraction is reported as 0.973 ± 0.039. Work on OS25HAL BONE yielded a surviving fraction of 0.932 ± 0.02. HCC1806 BREAST was tested, and the surviving fraction was 0.709 ± 0.61. In the case of HU09 BONE, the surviving fraction is reported as 1.03 ± 0.091. For SG43 HEADNECK, the surviving fraction was 1.05 ± 0.13. Test System U2OS BONE has a surviving fraction of 1.015 ± 0.0081. HOSMNG BONE was tested, and the surviving fraction was 0.985 ± 0.15. CASKI CERVIX gave a surviving fraction of 0.911 ± 0.038. SUM44 BREAST was tested, and the surviving fraction was 0.992 ± 0.017. MDAMB231 BREAST was tested, and the surviving fraction was 0.983 ± 0.018. With CAL51 BREAST the surviving fraction was 0.969 ± 0.021. Work on MDAMB436 BREAST yielded a surviving fraction of 0.567 ± 0.042. With HSSYII SYNOVIAL the surviving fraction was 0.582 ± 0.026. RDES SOFT TISSUE gave a surviving fraction of 1.12 ± 0.13. Work on MDAMB157 BREAST yielded a surviving fraction of 0.99 ± 0.044. With CHLA90 AUTONOMIC GANGLIA the surviving fraction was 0.396 ± 0.01. CADOES1 SOFT TISSUE showed a surviving fraction of 0.918 ± 0.15. For SG31 HEADNECK, the surviving fraction was 0.888 ± 0.097. Test System SCC47 HEADNECK has a surviving fraction of 0.992 ± 0.044. In the case of S68 BREAST, the surviving fraction is reported as 1.04 ± 0.29. SNU475 LIVER was tested, and the surviving fraction was 0.423 ± 0.0047. Test System 22RV1 PROSTATE has a surviving fraction of 0.942 ± 0.059. SG32 HEADNECK gave a surviving fraction of 0.729 ± 0.054. In the case of SCC003 HEADNECK, the surviving fraction is reported as 0.973 ± 0.059. For “JURKAT HAEMATOPOIETIC AND LYMPHOID TISSUE”, the surviving fraction was 1.04 ± 0.042. HT1080 SOFT TISSUE showed a surviving fraction of 1.05 ± 0.031. Test System CAL120 BREAST has a surviving fraction of 0.8868 ± 0.0073. For MCF7 BREAST, the surviving fraction was 0.815 ± 0.034. For MFM223 BREAST, the surviving fraction was 1.01 ± 0.036. LNCAP PROSTATE showed a surviving fraction of 0.815 ± 0.11. PCI30 HEADNECK was tested, and the surviving fraction was 0.945 ± 0.03. With OSHN BONE the surviving fraction was 1.02 ± 0.02. SG28 HEADNECK showed a surviving fraction of 0.835 ± 0.1. Test System HOS BONE has a surviving fraction of 0.966 ± 0.0082. HUO3N1 BONE showed a surviving fraction of 1.02 ± 0.071. Work on BT20 BREAST yielded a surviving fraction of 1.3 ± 0.25. With SJSA1 BONE the surviving fraction was 1 ± 0.033. Test System JIMT1 BREAST has a surviving fraction of 0.999 ± 0.021. HCC78 LUNG was tested, and the surviving fraction was 0.948 ± 0.071. In the case of NY BONE, the surviving fraction is reported as 0.928 ± 0.021.
